Data on three compounds can be found in patent US11007237B2, “Agent for suppressing carbohydrate breakdown and absorption” (KOHAKU BIO TECHNOLOGY CO., LTD., priority 2017, dated 2021).

The target in one data set is T1, sucrase (Homo sapiens, UniProt P14410).
T1 construct: Cells were collected with a lysis buffer (0.1 M phosphate buffer (pH6.8), 0.5% TritonX-100); endogenous in cells; host or cells: Caco-2 cells (Triton X-100 lysate supernatant, crude enzyme)
The experiment in a line: Suppression test for sucrase activity in Caco-2 cells. In kind it is cell-based. The procedure: (§1) The extract obtained can be examined for action to suppress α-glucosidase activity, for example, by the following method. The extract is added to human colon cancer-derived cells (hereinafter referred to as Caco-2 cells) and the cells are cultured. The cultured cells are collected. With a crude enzyme solution thereof, sucrose or maltose serving as substrate is allowed to react. The amount of glucose generated is quantified by an enzyme method using glucose oxidase. An action to inhibit glucose uptake can be examined by the following method. To Caco-2 cells differentiated into the intestinal epithelial-like, glucose and the extract were simultaneously added. The amount of glucose taken in the cells or permeated through the cells is quantified by an enzyme method using glucose oxidase.
(§2) The test herein was carried out with reference to the method of OGAWA et al. (N. Ogawa et al., the Journal of Nutrition, 130: 507-513, 2000).
To Dulbecco's modified eagle medium (DMEM)(manufactured by Thermo Fisher Scientific K.K.), 10% fetal bovine serum (hereinafter referred to as FBS)(manufactured by Thermo Fisher Scientific K.K.), a 1% antibacterial agent (Penicillin-Streptomycin-L-Glutamine) (manufactured by FUJIFILM Wako Pure Chemical Corporation) and a 1% non-essential amino acid mixture (MEM Non-Essential Amino Acids) (manufactured by Thermo Fisher Scientific K.K.) were added to prepare a culture solution (hereinafter referred to as DMEM culture medium). In the DMEM culture solution (medium), Caco-2 cells were suspended. The suspension was added in 24-well plates (manufactured by TPP) in a ratio of 1.0×10^4 cells/cm^2 to seed the cells. The cells were cultured under 95% air/5% carbon dioxide gas at 37° C. for 8 to 10 days until the cultured cells reached confluency while exchanging the medium at intervals of 2 to 3 days. After the culture supernatant was removed by suction, the amber extract (50% ethanol extract) obtained in Production Example 1 was dissolved in dimethyl sulfoxide (hereinafter referred to as DMSO) so as to obtain a final concentration of 100 and 200 μg/mL. The DMSO solutions were mixed with DMEM culture medium (DMSO final concentration: 0.25%) and each added in an amount of 500 μL. DMSO was added to DMEM culture medium so as to obtain a DMSO final concentration of 0.25% and treated. This was used as a control. […] This was used as a positive control. In addition, the suppression test for sucrase/maltase activity was carried out by using succinic acid in the corresponding amount to that contained in amber extract. More specifically, the content of succinic acid in the amber extract obtained in Production Example 1 was calculated by analysis/preparative high performance liquid chromatographic apparatus and a Fourier transform infrared spectrophotometer. […]
(§3) Cells were collected with a lysis buffer (0.1 M phosphate buffer (pH6.8), 0.5% TritonX-100), allowed to stand still on ice for 20 minutes and centrifuged (10,000×g) at 4° C. for 30 minutes, and then, the supernatant was collected. […] Thereafter, the amount of the glucose generated was quantified in accordance with an enzyme method using glucose CII test Wako (manufactured by FUJIFILM Wako Pure Chemical Corporation). The sucrase activity and maltase activity were calculated, respectively, based on the production amount of glucose.

Another data set relates to Caco-2 cells. The experiment in a line: Suppression test for glucose uptake by the intestinal epithelial-like cells (Caco-2 cells), Transwell glucose permeation. To be noted: for Glucose permeability (%) (n = 3): apical side, 2 hours, control = 100. In kind it is cell-based, human. The procedure: as §1
The test herein was carried out in accordance with the method of Konishi et al. (Konishi et al., Biosci. Biotechnol. Biochem., 67(4), 856-862, 2003). In DMEM culture medium, Caco-2 cells were suspended. The suspension was added in Transwell-COL of 12 mm diameter and 0.4 μm in pore size (manufactured by Corning Incorporated) (hereinafter referred to as Transwell) in a ratio of 1.0×10^5 cells/cm^2 to seed the cells. The cells were cultured under 95% air-5% carbon dioxide gas at 37° C. for 3 weeks while exchanging the medium at intervals of 2 to 3 days.
After an intercellular electrical resistance (TER value) was confirmed to be 350 Ω·cm^2 or more by Millicell ERS-2 resistance measurement system (manufactured by Merck Millipore), the amber extract obtained in Production Example 1 was dissolved in DMSO on the apical side so as to obtain a final concentration of 0.2, 1 and 2 mg/mL, and mixed with a solution obtained by dissolving D(+)-glucose in PBS (+) in a concentration of 0.5% (hereinafter referred to as the 0.5% glucose solution) (DMSO final concentration: 1%). The resultant mixed solutions each were added in an amount of 500 μL. DMSO was added to a 0.5% glucose solution so as to obtain a DMSO final concentration of 1% and treated. This was used as a control. Phlorizin n-hydrate derived from an apple (hereinafter referred to as phlorizin) was dissolved in DMSO so as to obtain a final concentration of 1 mg/mL and mixed with the 0.5% glucose solution. The resultant DMSO solution (DMSO final concentration: 1%) was treated and used as a positive control. Further, succinic acid was subjected to a glucose permeation suppression test in the amount corresponding to that contained in the amber extract. More specifically, the content of succinic acid in the amber extract obtained in Production Example 1 was calculated by use of analysis/preparative high performance liquid chromatographic apparatus and Fourier transform infrared spectrophotometer. As a result, the content rate of succinic acid was confirmed to be 2% or less. Then, succinic acid was dissolved in DMSO so as to obtain a final concentration of 0.02, 0.05 and 0.1 mg/mL and mixed with PBS (+)(DMSO final concentration: 1%) and treated. At each basolateral side, 500 μL of PBS (+) was added. These transwells were subjected to culture carried out under 95% air −5% carbon dioxide gas at 37° C. for 2 hours. Thereafter the amount of glucose permeated on the basolateral side was quantified by use of glucose CII test Wako. The glucose permeability of the control sample was regarded as 100 and the relative changes for the samples containing a test substance were calculated. After the test, the TER value was confirmed to be 350 Ω·cm^2 or more.

For another data set, the system named is maltase. The experiment in a line: Suppression test for maltase activity in Caco-2 cells. In kind it is cell-based, human. As to conditions: for Maltase activity (%) (n = 3): Caco-2 cells treated 7 days, control = 100. The procedure: as §1, §2
To Dulbecco's modified eagle medium (DMEM)(manufactured by Thermo Fisher Scientific K.K.), 10% fetal bovine serum (hereinafter referred to as FBS)(manufactured by Thermo Fisher Scientific K.K.), a 1% antibacterial agent (Penicillin-Streptomycin-L-Glutamine) (manufactured by FUJIFILM Wako Pure Chemical Corporation) and a 1% non-essential amino acid mixture (MEM Non-Essential Amino Acids) (manufactured by Thermo Fisher Scientific K.K.) were added to prepare a culture solution (hereinafter referred to as DMEM culture medium). In the DMEM culture solution (medium), Caco-2 cells were suspended. The suspension was added in 24-well plates (manufactured by TPP) in a ratio of 1.0×10^4 cells/cm^2 to seed the cells. The cells were cultured under 95% air/5% carbon dioxide gas at 37° C. for 8 to 10 days until the cultured cells reached confluency while exchanging the medium at intervals of 2 to 3 days. […] More specifically, the content of succinic acid in the amber extract obtained in Production Example 1 was calculated by analysis/preparative high performance liquid chromatographic apparatus and a Fourier transform infrared spectrophotometer. […]
as §3

Where [1] appears, read: Caco-2 cells, succinic acid in the amount corresponding to that contained in the amber extract.

T1 sequence (P14410 whole entry): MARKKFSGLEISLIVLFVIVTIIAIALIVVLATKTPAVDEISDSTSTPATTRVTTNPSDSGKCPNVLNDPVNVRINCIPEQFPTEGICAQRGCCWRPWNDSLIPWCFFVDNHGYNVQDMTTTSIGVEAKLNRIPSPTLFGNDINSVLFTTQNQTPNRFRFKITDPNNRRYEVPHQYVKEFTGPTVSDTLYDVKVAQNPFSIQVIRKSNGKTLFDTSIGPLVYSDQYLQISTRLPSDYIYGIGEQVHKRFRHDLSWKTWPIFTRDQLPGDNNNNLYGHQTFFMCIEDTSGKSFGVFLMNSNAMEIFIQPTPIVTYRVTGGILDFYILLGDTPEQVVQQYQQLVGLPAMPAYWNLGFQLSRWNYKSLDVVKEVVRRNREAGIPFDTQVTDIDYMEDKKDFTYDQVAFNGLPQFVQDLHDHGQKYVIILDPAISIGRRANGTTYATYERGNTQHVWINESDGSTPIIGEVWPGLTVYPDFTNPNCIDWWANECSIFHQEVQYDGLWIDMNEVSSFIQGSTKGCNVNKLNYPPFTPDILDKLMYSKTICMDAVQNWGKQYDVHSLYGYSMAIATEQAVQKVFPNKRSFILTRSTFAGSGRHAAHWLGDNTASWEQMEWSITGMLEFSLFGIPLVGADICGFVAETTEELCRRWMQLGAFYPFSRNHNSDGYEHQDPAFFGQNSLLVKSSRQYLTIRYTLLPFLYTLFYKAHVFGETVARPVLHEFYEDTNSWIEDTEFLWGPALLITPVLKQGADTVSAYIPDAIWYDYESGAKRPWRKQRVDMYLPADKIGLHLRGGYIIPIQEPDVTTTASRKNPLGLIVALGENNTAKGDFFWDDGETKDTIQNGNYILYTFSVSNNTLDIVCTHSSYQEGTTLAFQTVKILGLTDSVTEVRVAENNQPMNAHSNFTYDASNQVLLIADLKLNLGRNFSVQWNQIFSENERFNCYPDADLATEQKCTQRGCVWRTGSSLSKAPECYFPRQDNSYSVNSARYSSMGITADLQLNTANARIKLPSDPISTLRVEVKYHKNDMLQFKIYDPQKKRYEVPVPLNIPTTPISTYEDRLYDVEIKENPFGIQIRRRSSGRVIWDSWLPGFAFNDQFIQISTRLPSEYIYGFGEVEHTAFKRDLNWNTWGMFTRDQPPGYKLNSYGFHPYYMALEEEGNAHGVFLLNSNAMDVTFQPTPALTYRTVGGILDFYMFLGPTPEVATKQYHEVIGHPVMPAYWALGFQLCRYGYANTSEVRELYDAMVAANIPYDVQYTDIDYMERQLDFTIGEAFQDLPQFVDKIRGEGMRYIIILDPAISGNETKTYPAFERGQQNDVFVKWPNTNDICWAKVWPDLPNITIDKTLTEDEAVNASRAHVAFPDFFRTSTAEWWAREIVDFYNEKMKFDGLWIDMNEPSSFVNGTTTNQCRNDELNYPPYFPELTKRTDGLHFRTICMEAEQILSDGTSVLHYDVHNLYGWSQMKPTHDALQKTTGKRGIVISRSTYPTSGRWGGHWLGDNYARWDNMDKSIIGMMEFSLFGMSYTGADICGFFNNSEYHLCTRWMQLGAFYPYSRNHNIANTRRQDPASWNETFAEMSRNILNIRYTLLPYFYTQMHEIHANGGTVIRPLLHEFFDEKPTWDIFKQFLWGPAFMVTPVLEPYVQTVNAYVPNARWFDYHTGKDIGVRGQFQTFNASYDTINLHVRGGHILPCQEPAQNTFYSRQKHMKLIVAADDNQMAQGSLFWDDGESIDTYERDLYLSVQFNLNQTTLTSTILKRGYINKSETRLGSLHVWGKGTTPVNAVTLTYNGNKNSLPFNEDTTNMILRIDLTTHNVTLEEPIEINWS

Consider `C[C@H]1O[C@H](O[C@H]2[C@H](O)[C@@H](O)[C@@H](O[C@H]3[C@H](O)[C@@H](O)C(O)O[C@@H]3CO)O[C@@H]2CO)[C@H](O)[C@@H](O)[C@@H]1N[C@H]1C=C(CO)[C@@H](O)[C@H](O)[C@H]1O` (some centres unmarked) [ACA, Acarbose], for which the activity at 100 µg/mL at sucrase (100 μg/mL, Caco-2 cells treated 7 days, control = 100, read-out: Sucrase activity (%) (n = 3)) is 90.2 ± 4.1%.

For the compound `O=C(CCc1ccc(O)cc1)c1c(O)cc(O)cc1O[C@@H]1O[C@H](CO)[C@@H](O)[C@H](O)[C@H]1O` [Phlorizin, Phlorizin n-hydrate], in the data set with Caco-2 cells (1 mg/mL, 0.5% glucose), the “Glucose permeability (%) (n = 3)” value turned out to be 27.4 ± 1.8 %.

On to `O=C(O)CCC(=O)O` [Succinic acid, succinic acid], for which, at sucrase (2 μg/mL, Caco-2 cells treated 7 days, control = 100, read-out: Sucrase activity (%) (n = 3)), the activity at 2 µg/mL turned out to be 102 ± 3%. On sucrase (5 μg/mL, Caco-2 cells treated 7 days, control = 100, read-out: Sucrase activity (%) (n = 3)), the activity at 5 µg/mL turned out to be 95.4 ± 1.4%. In addition, on sucrase (25 μg/mL, Caco-2 cells treated 7 days, control = 100, read-out: Sucrase activity (%) (n = 3)), the activity at 25 µg/mL was 99.2 ± 2%. Moreover, the “Action to suppress sucrase activity in Caco-2 cells (in words)” value on sucrase (setting [1]) is “not confirmed”. In addition, the “Maltase activity (%) (n = 3)” value in the data set on maltase (2 μg/mL) is reported as 108.3 ± 1.5%; with maltase (5 μg/mL), 99.2 ± 1.3%; in the data set on maltase (25 μg/mL), 100.9 ± 2.1%. In the data set on maltase (setting [1]), the “Action to suppress maltase activity in Caco-2 cells (in words)” value is reported as “not confirmed”. The “Glucose permeability (%) (n = 3)” value came out at 94.6 ± 1.6% with Caco-2 cells (0.02 mg/mL), 92.8 ± 3.2% in the data set on Caco-2 cells (0.05 mg/mL) and 95.4 ± 2.5% in the data set on Caco-2 cells (0.1 mg/mL). Also, the “Suppression of glucose uptake / permeation in Caco-2 cells (in words)” value in the data set with Caco-2 cells (setting [1]) is given as “not confirmed”.
